This is an account of results in US10828337B2, “Materials and methods for controlling vasculogenesis from endothelial colony forming cells” (Indiana University Research and Technology Corporation, priority 2011, dated 2020).

In this test the test system is ECFC vacuole formation. Nature of the test: Perturbation of ECFC vacuole formation by inhibitors. The conditions noted are these: for way in which total vacuole area was decreased: Casin 2.5 μM (Cdc42), NSC23766 25 μM (Rac1), 3.0 mg/ml oligomer rich matrices (FIGS. 11 G, H); for effect on ECFC vacuole formation: MAB17781 1 μg/ml, Casin 2.5 μM, NSC23766 25 μM, TIMP-3 5 μg/ml. The format is cell-based, Human. How it is done: For analysis of in vitro vacuole formation, cultures were fixed with 4% paraformaldehyde for 20 minutes at 48 hours. Scaffolds were stained with 0.1% toluidine blue 0 in 30% methanol for 20 minutes and then washed with PBS.
A Leica DM IRE2 microscope (Leica Microsystems, Bannockburn, Ill.) with attached Retiga 4000R digital camera (QImaging, Surrey, BC, Canada) was used to image the entire area of each matrix using a 10× objective and the middle 9 fields of view were used for analysis. Lumens were quantified using a standard image analysis system Metamorph (Molecular Devices, Sunnyvale, Calif.). […] Lumens were defined as areas completely surround by a toluidine blue labeled endothelial cell membrane.
Chemical inhibitors TIMP-3 (5 μg/ml, R&D Systems, Minneapolis, Minn.), Casin (2.5 μM), NSC23766 (25 μM), or MAB17781 (1 μg/ml, R&D Systems, Minneapolis, Minn.) were added into the media during ECFC culture in 3.0 mg/ml matrices polymerized with the oligomer rich fraction. Treatments were conducted in duplicate and at least three independent experiments were conducted.
To first determine if this signaling axis was involved in ECFC vacuole formation chemical inhibitors to β1 integrin, Cdc42, Rac1, and MT1-MMP were added to cultures to test if they would alter cell behavior.

[1] abbreviates: 3.0 mg/ml oligomer rich matrices.

With `OCCNC1CCCc2c1[nH]c1ccc(-c3ccccc3)cc21` (centres unmarked) [Casin], the “way in which total vacuole area was decreased” value is listed as “decreased total vacuole area by decreasing vacuole density”. Under setting [1], the “effect on ECFC vacuole formation” value is “inhibited ECFC vacuole formation”.

Turning to `CCN(CC)CCCC(C)Nc1nc(C)cc(Nc2ccc3nc(C)cc(N)c3c2)n1` (centres unmarked) [NSC23766], the “way in which total vacuole area was decreased” value is “decreased total vacuole area by decreasing average vacuole area”. Under setting [1], the “effect on ECFC vacuole formation” value is on record as “inhibited ECFC vacuole formation”.

B1: TIMP-3: inhibitor (R&D Systems) added to the cultures to inhibit MT1-MMP activity (protein, UniProt P35625 24-211, looked up)
Metalloproteinase inhibitor 3: CTCSPSHPQDAFCNSDIVIRAKVVGKKLVKEGPFGTLVYTIKQMKMYRGFTKMPHVQYIHTEASESLCGLKLEVNKYQYLLTGRVYDGKMYTGLCNFVERWDQLTLSQRKGLNYRYHLGCNCKIKSCYYLPCFVTSKNECLWTDMLSNFGYPGYQSKHYACIRQKGGYCSWYRGWAPPDKSIINATDP
As for B1, the “effect on ECFC vacuole formation” value under setting [1] is “inhibited ECFC vacuole formation”. Where the note is “inhibitor in media (MAB17781 1 μg/ml, TIMP-3 5 μg/ml), 3.0 mg/ml oligomer rich matrices, control 11.24±0.65”, this molecule gave a vacuole density of 3.31±1.38 vacuoles/mm^2. For the setting “inhibitor in media (MAB17781 1 μg/ml, TIMP-3 5 μg/ml), 3.0 mg/ml oligomer rich matrices, control 536.09±138.24”, this molecule came in with a vacuole area of 146.04±45.86 μm^2. The molecule also displayed a total vacuole area (inhibitor in media (MAB17781 1 μg/ml, TIMP-3 5 μg/ml), 3.0 mg/ml oligomer rich matrices, control 19103.60±5447.67) of 2288.76±1685.92 μm^2.
